Results on 10 molecules are retold here after ChEMBL document CHEMBL1909593, “Identification of novel plasmin inhibitors possessing nitrile moiety as warhead” (Bioorg Med Chem Lett, 2011).

The target of test [1] is T1, Plasma kallikrein (Homo sapiens, UniProt P03952). Briefly: Inhibition of plasma kallikrein.
Test [2] deals with Urokinase-type plasminogen activator (Homo sapiens) (UniProt P00749). In words: Inhibition of urokinase at 200 uM.
For test [3], the target named is T2, Plasminogen (Homo sapiens, UniProt P00747). Briefly: Inhibition of plasmin.
T2 sequence (P00747 97-580 limits assumed): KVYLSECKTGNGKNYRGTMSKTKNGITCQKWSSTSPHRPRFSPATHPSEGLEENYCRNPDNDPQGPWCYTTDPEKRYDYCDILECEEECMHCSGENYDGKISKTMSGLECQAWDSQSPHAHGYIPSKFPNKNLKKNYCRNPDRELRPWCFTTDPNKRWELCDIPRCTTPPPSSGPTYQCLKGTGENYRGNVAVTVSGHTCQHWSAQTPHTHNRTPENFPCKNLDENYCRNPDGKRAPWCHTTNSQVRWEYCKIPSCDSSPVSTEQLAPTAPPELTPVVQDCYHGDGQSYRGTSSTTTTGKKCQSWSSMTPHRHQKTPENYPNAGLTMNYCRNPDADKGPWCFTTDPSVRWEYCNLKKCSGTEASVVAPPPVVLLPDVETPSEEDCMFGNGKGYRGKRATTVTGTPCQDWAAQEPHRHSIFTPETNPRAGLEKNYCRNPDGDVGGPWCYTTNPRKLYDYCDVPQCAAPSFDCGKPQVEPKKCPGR
T2 sequence (P00747 581-810 limits assumed): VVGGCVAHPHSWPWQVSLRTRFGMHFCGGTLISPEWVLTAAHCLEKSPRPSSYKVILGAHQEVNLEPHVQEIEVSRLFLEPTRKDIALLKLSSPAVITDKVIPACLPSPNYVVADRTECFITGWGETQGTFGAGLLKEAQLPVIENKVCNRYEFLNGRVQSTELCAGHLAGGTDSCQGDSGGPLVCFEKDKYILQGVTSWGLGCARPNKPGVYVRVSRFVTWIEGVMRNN
In test [4] the target is T1, Plasma kallikrein. In words: Inhibition of plasma kallikrein at 1000 uM.
For test [5], the target named is Urokinase-type plasminogen activator (Homo sapiens) (UniProt P00749). In words: Inhibition of urokinase at 1000 uM.
Test [6] concerns the target T1, Plasma kallikrein. Briefly: Inhibition of plasma kallikrein at 250 uM.
The target in test [7] is T2, Plasminogen. In words: Inhibition of plasmin at 250 uM.
In test [8] the target is Urokinase-type plasminogen activator (Homo sapiens) (UniProt P00749). Briefly: Inhibition of urokinase at 500 uM.
Test [9] has the same target. In words: Inhibition of urokinase at 400 uM.

pIC50: −log10 of the molar value.

T1 sequence (P03952 20-390 limits assumed): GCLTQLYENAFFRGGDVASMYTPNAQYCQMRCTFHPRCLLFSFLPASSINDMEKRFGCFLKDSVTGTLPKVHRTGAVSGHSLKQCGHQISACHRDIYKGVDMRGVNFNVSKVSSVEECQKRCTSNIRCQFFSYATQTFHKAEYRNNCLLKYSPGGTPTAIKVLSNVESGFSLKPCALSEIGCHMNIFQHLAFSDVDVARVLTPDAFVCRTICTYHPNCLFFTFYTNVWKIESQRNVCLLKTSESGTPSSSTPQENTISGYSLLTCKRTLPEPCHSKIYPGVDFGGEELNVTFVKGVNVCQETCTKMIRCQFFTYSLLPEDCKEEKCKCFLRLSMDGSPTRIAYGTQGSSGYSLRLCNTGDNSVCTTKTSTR
T1 sequence (P03952 391-638 limits assumed): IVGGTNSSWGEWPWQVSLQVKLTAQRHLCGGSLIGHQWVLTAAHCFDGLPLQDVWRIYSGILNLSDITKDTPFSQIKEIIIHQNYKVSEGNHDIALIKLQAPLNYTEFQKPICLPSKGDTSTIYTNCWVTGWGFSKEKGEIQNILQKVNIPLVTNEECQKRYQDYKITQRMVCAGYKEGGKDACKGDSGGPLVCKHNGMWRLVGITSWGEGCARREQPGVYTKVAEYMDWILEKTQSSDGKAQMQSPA

Usually pIC50 stands for −log10 of the IC50, conventionally taken in molar units. A lower pIC50 goes with a high IC50. The inhibition is the relative decrease from the control value, in per cent. Consider `CC(C)(C)OC(=O)n1cc(CCC(=O)Nc2cc(C(=O)N[C@H](C#N)CCCCN)ccc2OCc2ccncc2)c2ccccc21`, for which the pIC50 was 3.04 on Plasma kallikrein [1] and 3.66 at Plasminogen [3]. Moreover, the inhibition in [2] stood at 0%.
`N#C[C@H](CCCCN)NC(=O)c1ccc(OCc2ccncc2)c(NC(=O)CCc2c[nH]c3ccccc23)c1`: the results for the inhibition (in test [2]; at Plasma kallikrein [4]) were 0% and 44%, respectively. In addition, at Plasminogen [3], the negative-log IC50 (pIC50) was 3.43.
Turning to `N#C[C@H](CCCCN)NC(=O)c1ccc(OCc2ccncc2)cc1`, the negative logarithm of the IC50 (pIC50) against Plasminogen [3] is 3.62. For the same molecule, the inhibition stood at 45% on Plasma kallikrein [4] and 16% in test [5].
As for `COc1ccc(C(=O)N[C@H](C#N)CCCCN)cc1NC(=O)CCc1cn(Cc2ccc(F)cc2)c2ccccc12`, the values for the inhibition (at Plasma kallikrein [6]; in [2]; on Plasminogen [7]) were 22%, 0% and 0%, respectively.
For `CC[C@@H](C)[C@@H](N)C(=O)N[C@@H](Cc1ccccc1)C(=O)N[C@@H](CCCCN)C(N)=O`, the negative logarithm of the IC50 (pIC50) at Plasminogen [3] is 3.54. The inhibition (on Plasma kallikrein [4]; in test [5]) was 0% each time.
`CC[C@@H](C)[C@@H](N)C(=O)N[C@@H](Cc1ccccc1)C(=O)N[C@H](C#N)CCCCN` had a negative logarithm of the IC50 (pIC50) against Plasminogen [3] of 4.11. The inhibition is 38% against Plasma kallikrein [4] and 15% in test [5].
On to `N#C[C@H](CCCCN)NC(=O)c1ccc(OCc2ccncc2)c(NC(=O)Cc2cccc3ccccc23)c1`, for which the pIC50 is 3.17 against Plasma kallikrein [1] and 3.24 against Plasminogen [3]. This molecule came in with an inhibition in test [8] of 16%.
For `N#C[C@H](CCCCN)NC(=O)c1ccc(OCc2ccncc2)c(NC(=O)Cc2ccc3ccccc3c2)c1`, in that order: 3.42, 3.66 and 20%.
`N#C[C@H](CCCCN)NC(=O)c1ccc(OCc2ccncc2)c(NC(=O)Cc2ccc(F)cc2)c1` had a negative-log IC50 (pIC50) on Plasminogen [3] of 3.23. The inhibition against Plasma kallikrein [4] was 11%; in test [5], 19%.
Consider `N#C[C@H](CCCCN)NC(=O)c1ccc(OCc2ccncc2)c(NC(=O)CCc2cn(Cc3ccc(F)cc3)c3ccccc23)c1`, for which the inhibition (in [9]; against Plasma kallikrein [4]) was 0% throughout. The molecule also had a pIC50 on Plasminogen [3] of 3.85.
